Source: patent US12139499B2, “Heteroaryl compounds for treating Huntington's disease” (PTC THERAPEUTICS, INC., priority 2018, dated 2024)

Test system: Endogenous Huntingtin Protein
Experiment: Endogenous Huntingtin Protein Assay (ELISA-based MSD electrochemiluminescence)
Type: cell-based
Conditions: Table 1
How it was run: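 Huntingtin was captured overnight at 4 °C on plates coated with 1 μg/mL MW1 (polyQ-expanded) or MAB2166 antibody and BSA-blocked. Detection used a rabbit monoclonal and then a SULFO-TAG goat anti-rabbit antibody (0.25 μg/mL, 1 h each, room temperature). Signal was read by electrochemiluminescence.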

Compound	IC50
CN(c1nc2cnc(-c3ccc(-c4cn[nH]c4)cc3O)cc2s1)C1CC(C)(C)NC(C)(C)C1 [Compound 137, 2-{2-[methyl(2,2,6,6-tetramethylpiperidin-4-yl)amino][1,3]thiazolo[4,5-c]pyridin-6-yl}-5-(1H-pyrazol-4-yl)phenol]	3 to 9 µM
CN(c1nc2ccc(-c3cc(C4CC4)c4nn(C)cc4c3)cc2s1)C1CC(C)(C)NC(C)(C)C1 [Compound 80, 6-(7-cyclopropyl-2-methyl-2H-indazol-5-yl)-N-methyl-N-(2,2,6,6-tetramethylpiperidin-4-yl)-1,3-benzothiazol-2-amine]	1 to 3 µM
CN(c1nc2nnc(-c3ccc(-c4cn[nH]c4)cc3O)cc2s1)C1CNC1 [Compound 353, 2-{6-[(azetidin-3-yl)(methyl)amino][1,3]thiazolo[4,5-c]pyridazin-3-yl}-5-(1H-pyrazol-4-yl)phenol]	0.1 to 0.5 µM
CN1CCCC2(CCN2c2nc3nnc(-c4ccc(-c5cn[nH]c5)cc4O)cc3s2)C1 (stereo not shown) [Compound 370, 2-[6-(6-methyl-1,6-diazaspiro[3.5]nonan-1-yl)[1,3]thiazolo[4,5-c]pyridazin-3-yl]-5-(1H-pyrazol-4-yl)phenol]	≤ 0.1 µM
CN(c1nc2ccc(-c3ccc4nn(C)cc4c3)nc2s1)C1CC(C)(C)NC(C)(C)C1 [Compound 25, N-methyl-5-(2-methyl-2H-indazol-5-yl)-N-(2,2,6,6-tetramethylpiperidin-4-yl)[1,3]thiazolo[5,4-b]pyridin-2-amine]	0.1 to 0.5 µM
CN(c1nc2cnc(-c3ccc4nn(C)cc4c3)cc2s1)C1CCNCC1 [Compound 27, N-methyl-6-(2-methyl-2H-indazol-5-yl)-N-(piperidin-4-yl)[1,3]thiazolo[4,5-c]pyridin-2-amine]	0.5 to 1 µM
Cc1cn2cc(-c3ncc4nc(N(C)C5C6CCC5CNC6)sc4n3)cc(C#N)c2n1 (stereo not drawn) [Compound 228, 6-{2-[(8-anti)-3-azabicyclo[3.2.1]oct-8-yl(methyl)amino][1,3]thiazolo[5,4-d]pyrimidin-5-yl}-2-methylimidazo[1,2-a]pyridine-8-carbonitrile]	0.5 to 1 µM
CN(c1nc2nnc(-c3ccc(-n4ccnc4)cc3O)cc2s1)C1CCNCC1 [Compound 327, 5-(1H-imidazol-1-yl)-2-{6-[methyl(piperidin-4-yl)amino][1,3]thiazolo[4,5-c]pyridazin-3-yl}phenol]	0.1 to 0.5 µM
Cc1cc(-c2cc(O)c3nc(C4CCNCC4)sc3c2)cc2cn(C)nc12 [Compound 134, 6-(2,7-dimethyl-2H-indazol-5-yl)-2-(piperidin-4-yl)-1,3-benzothiazol-4-ol]	0.1 to 0.5 µM
Cc1cc(-c2cc3sc(N(C)C4CC(C)(C)NC(C)(C)C4)nc3nn2)cc2cn(C)nc12 [Compound 118, 3-(2,7-dimethyl-2H-indazol-5-yl)-N-methyl-N-(2,2,6,6-tetramethylpiperidin-4-yl)[1,3]thiazolo[4,5-c]pyridazin-6-amine]	0.1 to 0.5 µM
CN1[C@@H]2CC[C@H]1C[C@H](Nc1nc3cnc(-c4cc(C#N)c5nn(C)cc5c4)cc3s1)C2 [Compound 244, 2-methyl-5-(2-{[(3-exo)-8-methyl-8-azabicyclo[3.2.1]oct-3-yl]amino][1,3]thiazolo[4,5-c]pyridin-6-yl)-2H-indazole-7-carbonitrile]	1 to 3 µM
Cc1cn2nc(-c3cc(F)c4nc(N(C)[C@H]5CCN[C@@H](C)C5)sc4c3)ccc2n1 [Compound 258, 4-fluoro-N-methyl-6-(2-methylimidazo[1,2-b]pyridazin-6-yl)-N-[(2S,4S)-2-methylpiperidin-4-yl]-1,3-benzothiazol-2-amine]	≤ 0.1 µM
Cc1cn2cc(-c3ncc4nc(N(C)[C@@H]5CC(C)(C)NC(C)(C)[C@@H]5F)sc4n3)cc(C#N)c2n1 [Compound 324, 6-(2-{[(3R,4R)-3-fluoro-2,2,6,6-tetramethylpiperidin-4-yl](methyl)amino}[1,3]thiazolo[5,4-d]pyrimidin-5-yl)-2-methylimidazo[1,2-a]pyridine-8-carbonitrile]	≤ 0.1 µM
